Results published in ChEMBL document CHEMBL1129591 (J Med Chem, 1996).

What was measured:
[1] = target: T1, 5-hydroxytryptamine receptor 1B (Homo sapiens, UniProt P28222); test: Ability to inhibit the forskolin-stimulated c-AMP formation mediated by human 5-hydroxytryptamine 1B receptor in CHO-K1 cells; assay type: functional, cell-based
[2] = target: T1, 5-hydroxytryptamine receptor 1B; test: Inhibition of forskolin-stimulated c-AMP formation by human 5-hydroxytryptamine 1B receptor expressed in CHO-K1 cells; assay type: functional, cell-based
[3] = target: 5-hydroxytryptamine receptor 1D (Homo sapiens, UniProt P28221); test: Binding affinity at cloned human 5-hydroxytryptamine 1D receptor
Sequence of 5-hydroxytryptamine receptor 1D (P28221 whole entry): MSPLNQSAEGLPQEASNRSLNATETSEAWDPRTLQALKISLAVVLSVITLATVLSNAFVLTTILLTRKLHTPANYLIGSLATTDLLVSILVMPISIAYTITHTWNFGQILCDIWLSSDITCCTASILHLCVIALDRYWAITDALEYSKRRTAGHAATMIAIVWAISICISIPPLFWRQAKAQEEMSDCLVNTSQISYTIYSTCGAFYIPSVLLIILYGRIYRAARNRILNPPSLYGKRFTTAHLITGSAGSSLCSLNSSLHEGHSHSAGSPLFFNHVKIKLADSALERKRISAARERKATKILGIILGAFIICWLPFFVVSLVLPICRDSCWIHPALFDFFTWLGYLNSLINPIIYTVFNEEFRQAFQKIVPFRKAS

[4] = target: T2, 5-hydroxytryptamine receptor 1A (Homo sapiens, UniProt P08908); test: Ability to inhibit the forskolin-stimulated c-AMP formation mediated by human 5-hydroxytryptamine 1A receptor in CHO-K1 cells; assay type: functional, cell-based
T2 sequence (P08908 whole entry): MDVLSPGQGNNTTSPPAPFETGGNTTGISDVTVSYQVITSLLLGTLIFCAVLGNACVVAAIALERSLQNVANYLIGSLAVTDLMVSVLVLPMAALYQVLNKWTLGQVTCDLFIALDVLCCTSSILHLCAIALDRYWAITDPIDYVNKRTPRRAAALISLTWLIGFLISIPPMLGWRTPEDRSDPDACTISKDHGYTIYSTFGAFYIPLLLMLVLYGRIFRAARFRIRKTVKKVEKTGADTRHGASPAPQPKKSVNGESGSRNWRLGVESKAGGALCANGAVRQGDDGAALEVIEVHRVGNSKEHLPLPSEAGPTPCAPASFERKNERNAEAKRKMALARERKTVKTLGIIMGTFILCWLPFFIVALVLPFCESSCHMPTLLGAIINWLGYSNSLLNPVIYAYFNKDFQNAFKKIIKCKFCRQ

T1 sequence (P28222 whole entry): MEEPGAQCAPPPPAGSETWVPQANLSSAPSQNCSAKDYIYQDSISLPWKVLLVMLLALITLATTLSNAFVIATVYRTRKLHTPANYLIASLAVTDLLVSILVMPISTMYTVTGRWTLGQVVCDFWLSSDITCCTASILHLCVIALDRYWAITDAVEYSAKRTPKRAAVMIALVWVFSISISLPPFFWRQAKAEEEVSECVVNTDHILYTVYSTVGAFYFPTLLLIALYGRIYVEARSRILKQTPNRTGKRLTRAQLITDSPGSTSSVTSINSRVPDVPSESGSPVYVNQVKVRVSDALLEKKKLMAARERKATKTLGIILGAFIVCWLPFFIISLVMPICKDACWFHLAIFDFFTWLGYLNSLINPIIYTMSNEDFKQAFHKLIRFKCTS

Row | Compound | Ki [1] | EC50 [2] | Ki [3] | Ki [4]
1 | NCCc1c[nH]c2ccc(OCc3ccc(COc4ccc5[nH]cc(CCN)c5c4)cc3)cc12 | 0.1 nM | 3 nM | 0.11 nM | 1.6 nM
2 | NCCc1c[nH]c2ccc(OCCN3CCN(CCOc4ccc5[nH]cc(CCN)c5c4)CC3)cc12 | 0.26 nM | 0.19 nM | 0.35 nM | 9.5 nM
3 | NCCc1c[nH]c2ccc(OCC(=O)NCCCNC(=O)COc3ccc4[nH]cc(CCN)c4c3)cc12 | 0.3 nM | 0.09 nM | 0.3 nM | 8.6 nM
4 | NCCc1c[nH]c2ccc(OCC(=O)N3CCN(C(=O)COc4ccc5[nH]cc(CCN)c5c4)CC3)cc12 | 0.36 nM | 0.28 nM | 0.42 nM | 20 nM
5 | NCCc1c[nH]c2ccc(OCC(=O)N3CCNCC3)cc12 | > 100 nM | – | > 100 nM | > 100 nM
6 | NCCc1c[nH]c2ccc(OCCNC(=O)NCCOc3ccc4[nH]cc(CCN)c4c3)cc12 | 0.2 nM | 1.6 nM | 0.4 nM | 2.2 nM
7 | NCCc1c[nH]c2ccc(OCCN3CCN(C(=O)COc4ccc5[nH]cc(CCN)c5c4)CC3)cc12 | 0.11 nM | 0.22 nM | 0.16 nM | 9.5 nM
8 | NCCc1c[nH]c2ccc(OCCNC(=O)COc3ccc4[nH]cc(CCN)c4c3)cc12 | 0.16 nM | 0.44 nM | 0.18 nM | 2.2 nM
9 | NCCc1c[nH]c2ccc(OCc3cccc(COc4ccc5[nH]cc(CCN)c5c4)c3)cc12 | 0.32 nM | 0.85 nM | 0.35 nM | 1 nM
10 | NCCc1c[nH]c2ccc(OCc3ccccc3COc3ccc4[nH]cc(CCN)c4c3)cc12 | 1.7 nM | 2.07 nM | 1.5 nM | 4.3 nM
11 | NCCc1c[nH]c2ccc(OCCCCCCNS(=O)(=O)c3ccc(-c4ccc(S(=O)(=O)NCCCCCCOc5ccc6[nH]cc(CCN)c6c5)cc4)cc3)cc12 | 0.38 nM | 0.1 nM | 0.45 nM | 1.66 nM
12 | NCCc1c[nH]c2ccc(OCCOc3ccc4[nH]cc(CCN)c4c3)cc12 | 2.5 nM | 4 nM | 1 nM | 14.3 nM
13 | NCCc1c[nH]c2ccc(OCC(=O)Nc3ccc(NC(=O)COc4ccc5[nH]cc(CCN)c5c4)cc3)cc12 | 0.27 nM | 0.3 nM | 0.11 nM | 4.06 nM
14 | NCCc1c[nH]c2ccc(OCC(=O)Nc3ccc(N4CCN(C(=O)COc5ccc6[nH]cc(CCN)c6c5)CC4)cc3)cc12 | 0.14 nM | 0.4 nM | 0.09 nM | 9.8 nM
15 | NCCc1c[nH]c2ccc(OCC(=O)N3CCC(C4CCN(C(=O)COc5ccc6[nH]cc(CCN)c6c5)CC4)CC3)cc12 | 0.22 nM | 0.26 nM | 0.27 nM | 4 nM
16 | NCCc1c[nH]c2ccc(OCCCCCCOc3ccc4[nH]cc(CCN)c4c3)cc12 | 0.5 nM | 0.6 nM | 0.46 nM | 1.8 nM
